Source: patent US20240408057A1, “Composition for preventing or treating cachexia and muscle loss” (METAFINES.CO.LTD., priority 2023, published 2024)

Columns and labels:
Type in all cases: cell-based, mouse
C2C12 myotube cells [1] = test: Myotube diameter of C2C12 myotubes treated with inducers (no CCM); conditions: 72 hours
Description: (§1) A C2C12 cell line was dispensed into a 6-well plate at 4.0×10^5 cells/well, and then cultured in DMEM medium containing 10% fetal bovine serum (FBS) under 37° C. and 5% CO2 conditions for one day. When the cell density reached about 80%, the medium was replaced with a differentiation medium and the cells were cultured for additional 3 days to set up a normal control group, and simultaneously a test group was set up by treatment with WY-14643, which is a PDK-4 activator, at a concentration of 50 μM. […] Scale bars inserted in FIGS. 13A and 13B represent a horizontal length of 50 μm. Referring to FIG. 13, it was confirmed that the diameter of myotube cells decreased when treated with the PDK-4 activator (i.e., WY-14643), thereby inducing the cells to a state similar to that of cancer cachexia.
A C2C12 cell line was dispensed into a 6-well plate at 4.0×10^5 cells/well, and then cultured in DMEM medium containing 10% fetal bovine serum (FBS) under 37° C. and 5% CO2 conditions for one day. […]
A C2C12 cell line was dispensed into a 6-well plate at 4.0×10^5 cells/well, and then cultured in DMEM medium containing 10% fetal bovine serum (FBS) under 37° C. and 5% CO2 conditions for one day. […] The myotube diameter was measured using Image J to confirm the changes in diameter of myotube cells, and the results are shown in FIG. 37B.

MuRF1 [2] = test: MuRF1 expression (Western blot) in CCM-treated C2C12 myotubes; conditions: 72 hours, compared to other experimental groups (components alone and in combination)
Description: (§2) A C2C12 cell line was dispensed into a 6-well plate at 4.0×10^5 cells/well, and then cultured in DMEM medium containing 10% fetal bovine serum (FBS) under 37° C. and 5% CO2 conditions for one day. When the cell density reached about 80%, the medium was replaced with a differentiation medium and the cells were cultured for additional 3 days. After confirming completion of differentiation of the cells, the cells were treated with a mixture, in which the differentiation medium and cancer-cell conditioned medium (CCM) were mixed at a 1:1 ratio, to form a control group, and simultaneously, a test group was set up by treating with the calcium salts of Preparation Examples 1 to 3 according to three predetermined concentrations.
(§3) A C2C12 cell line was dispensed into a 6-well plate at 4.0×10^5 cells/well, and then cultured in DMEM medium containing 10% fetal bovine serum (FBS) under 37° C. and 5% CO2 conditions for one day. When the cell density reached about 80%, the medium was replaced with a differentiation medium and the cells were cultured for additional 3 days.

GDF-15 = GDF-15 expression (Western blot) in CCM-treated C2C12 myotubes; conditions: for expression of GDF-15: C2C12 myotubes + CCM, 72 hours, comparison experiment with components alone and in combination; for expression level of GDF-15: C2C12 myotubes, differentiation medium:CCM 1:1, 72 hours, three predetermined concentrations, vs CCM control
Description: (§4) C2C12 cell line was dispensed into a 6-well plate at 4.0×10^5 cells/well and cultured in DMEM medium containing 10% fetal bovine serum (FBS) under 37° C. and 5% CO2 conditions for one day. When the cell density reached about 80%, the medium was replaced with a differentiation medium and the cells were cultured for additional 3 days. […] After culturing for 72 hours, the cells were collected and analyzed for PDK-4, which is a target marker, by Western blot and the results are summarized in FIG. 6.
The analysis was performed in the same manner as in Experimental Example 4-1 except for analyzing GDF-15 as a target marker for a Western blot, and the results are summarized in FIGS. 8 and 9.
The analysis was performed in the same manner as in Experimental Example 3-1 except for analyzing PDK-4 as a target marker for Western blot, and the results are summarized in FIGS. 10 and 11.
as §3

Calpain 3 = Calpain 3 expression (Western blot) in CCM-treated C2C12 myotubes
Description: as §4
The experiment was performed in the same manner as in Experimental Example 3-1, except that Calpain 3 was analyzed as a target marker for Western blot, and the results are summarized in FIG. 7.
as §3

Myogenin [3] = test: Myogenin expression (Western blot) in CCM-treated C2C12 myotubes; conditions: 72 hours, compared to other experimental groups (components alone and in combination)
Description: as §2, §3

MyHC [4] = test: MyHC expression (Western blot) in CCM-treated C2C12 myotubes; conditions: 72 hours, compared to other experimental groups (components alone and in combination)
Description: as §2, §3

Atrogin1 [5] = test: Atrogin1 expression (Western blot) in CCM-treated C2C12 myotubes; conditions: 72 hours, compared to other experimental groups (components alone and in combination)
Description: as §2, §3

PDK-4 [6] = test: PDK-4 expression (Western blot) in CCM-treated C2C12 myotubes; conditions: for expression of PDK-4: C2C12 myotubes + CCM, 72 hours, comparison experiment with components alone and in combination; for expression level of PDK-4: C2C12 myotubes, differentiation medium:CCM 1:1, 72 hours, three predetermined concentrations, vs CCM control
Description: as §4, §3
Subsequently, MuRF1, Atrogin1, MyHC, Myogenin (muscle markers) and Calpain 3, PDK-4, and GDF-15 (other target markers for muscle related disease) were analyzed using Western blot, and the relative expression levels for the markers are shown in FIGS. 26 and 28.

C2C12 myotube cells [7] = test: Myotube diameter (crystal violet, Image J) of CCM-treated C2C12 myotubes; conditions: C2C12 myotubes + CCM 1:1, 72 hours, predetermined concentration; compared to CCM
Description: A C2C12 cell line was dispensed into a 6-well plate at 4.0×10^5 cells/well, and then cultured in DMEM medium containing 10% fetal bovine serum (FBS) under 37° C. and 5% CO2 conditions for one day. When the cell density reached about 80%, the medium was replaced with a differentiation medium and the cells were cultured for additional 3 days. […] The myotube diameter was measured using Image J from the above image, and the change in myotube cell diameter is summarized in FIG. 17B. A C2C12 cell line was dispensed into a 6-well plate at 4.0×10^5 cells/well, and then cultured in DMEM medium containing 10% fetal bovine serum (FBS) under 37° C. and 5% CO2 conditions for one day. When the cell density reached about 80%, the medium was replaced with a differentiation medium and the cells were cultured for additional 3 days. […] The myotube diameter was measured using Image J from the above images, and the changes in myotube cell diameter are summarized in FIG. 24B.

Myogenin [8] = test: Myogenin expression (Western blot) in C2C12 myotubes treated with inducers (no CCM); conditions: 50 μM, 72 hours, vs UCM
Description: as §1
(§5) Subsequently, the expression of PDK-4, MuRF1, Atrogin1, MyHC, and Myogenin in the normal control group (UCM) and the activator-treated group (WY-14643) were analyzed by Western blot, and the results are shown in FIGS. 14A and 14B. […]
(§6) Subsequently, the expression of Calpain 3, MuRF1, Atrogin1, MyHC, and Myogenin in the normal control group (UCM), vehicle control group (scrambled siRNA), and Calpain 3 siRNA treated group was analyzed by Western blot, and the results are shown in FIGS. 16A and 16B. […]

MyHC [9] = test: MyHC expression (Western blot) in C2C12 myotubes treated with inducers (no CCM); conditions: 50 μM, 72 hours, vs UCM
Description: as §1, §5, §6

Atrogin1 [10] = test: Atrogin1 expression (Western blot) in C2C12 myotubes treated with inducers (no CCM); conditions: 50 μM, 72 hours, vs UCM
Description: as §1, §5, §6

PDK-4 [11] = test: PDK-4 expression (Western blot) in C2C12 myotubes treated with inducers (no CCM); conditions: 50 μM, 72 hours, vs UCM
Description: as §1
Subsequently, the expression of PDK-4, MuRF1, Atrogin1, MyHC, and Myogenin in the normal control group (UCM) and the activator-treated group (WY-14643) were analyzed by Western blot, and the results are shown in FIGS. 14A and 14B.
A C2C12 cell line was dispensed into a 6-well plate at 4.0×10^5 cells/well, and then cultured in DMEM medium containing 10% fetal bovine serum (FBS) under 37° C. and 5% CO2 conditions for one day. When the cell density reached about 80%, the medium was replaced with a differentiation medium and the cells were cultured for additional 3 days. […]

MuRF1 [12] = test: MuRF1 expression (Western blot) in C2C12 myotubes treated with inducers (no CCM); conditions: 50 μM, 72 hours, vs UCM
Description: as §1, §5, §6

[13] = C2C12 myotubes + CCM, 72 hours, compared to other experimental groups (components alone and in combination)
[14] = C2C12 myotubes, differentiation medium:CCM 1:1, 72 hours, three predetermined concentrations, vs CCM control

Compound	expression of MuRF1 (MuRF1 [2])	expression of GDF-15 (GDF-15)	expression level of GDF-15 (GDF-15)	expression level of Calpain 3 (Calpain 3; [13])	expression level of Calpain 3 (Calpain 3; [14])	expression of Myogenin (Myogenin [3])	expression of MyHC (MyHC [4])	expression of Atrogin1 (Atrogin1 [5])	expression of PDK-4 (PDK-4 [6])	expression level of PDK-4 (PDK-4 [6])	diameter of myotube cells (C2C12 myotube cells [7])	other results
C[C@@H]1C[C@H]2[C@@H]3CCC4=CC(=O)C=C[C@]4(C)[C@@]3(F)[C@@H](O)C[C@]2(C)[C@@]1(O)C(=O)CO [dexamethasone]	–	–	–	–	–	–	–	–	–	–	–	treatment concentration from which the myotube diameter started to decrease (C2C12 myotube cells [1]): ≥ 1 µM
CC(C)CC(N)C(=O)[O-].O=C1OC(C(O)CO)C([O-])=C1O.[Ca+2] (centres unmarked) [Preparation Example 2, calcium salts of ascorbic acid and leucine]	excellent effect of inhibiting the increase of expression	inhibited	expression was inhibited	higher expression level	decrease in expression was inhibited	excellent effect of inhibiting the decrease of expression	excellent effect of inhibiting the decrease of expression	excellent effect of inhibiting the increase of expression	inhibited	expression was inhibited	–	–
O=C(O)C(Cl)Cl [dichloroacetic acid, reference compound]	–	–	–	–	–	–	–	–	–	–	increased	–
Cc1cccc(Nc2cc(Cl)nc(SCC(=O)O)n2)c1C [WY-14643]	–	–	–	–	–	–	–	–	–	–	–	expression of Myogenin (Myogenin [8]): down-regulated; expression of MyHC (MyHC [9]): down-regulated; diameter of myotube cells (C2C12 myotube cells [1]; 50 μM, vs normal control (UCM)): decreased; expression of Atrogin1 (Atrogin1 [10]): up-regulated; expression of PDK-4 (PDK-4 [11]): up-regulated; expression of MuRF1 (MuRF1 [12]): up-regulated
CC(C)CC(N)C(=O)[O-].O=C([O-])C(Cl)Cl.[Ca+2] (centres unmarked) [Preparation Example 3, calcium salts of dichloroacetic acid and leucine]	excellent effect of inhibiting the increase of expression	inhibited	expression was inhibited	higher expression level	decrease in expression was inhibited	excellent effect of inhibiting the decrease of expression	excellent effect of inhibiting the decrease of expression	excellent effect of inhibiting the increase of expression	inhibited	expression was inhibited	–	–
O=C1O[C@H]([C@@H](O)CO)C(O)=C1O [ascorbic acid, reference compound]	–	–	–	–	–	–	–	–	–	–	increased	–
